Source: patent US20110312934A1, “2-ALKYL-6-CYCLOAMINO-3-(PYRIDIN-4-YL)IMIDAZO[1,2-B]-PYRIDAZINE DERIVATIVES, PREPARATION THEREOF, AND THERAPEUTIC APPLICATION THEREOF” (SANOFI-AVENTIS, priority 2008, published 2011)

Columns and labels:
human CK1 delta = target: T1, human CK1 delta (Homo sapiens, UniProt P48730); experiment: FRET Z'Lyte kinase assay, CK1 delta; type: biochemical; settings: peptide substrate SER/THR 11 2 μM, ATP 4 times the KM, read-out: CK1 delta Cl50
T1 construct: purchased Invitrogen Corporation PV3665
Excerpt: The capacity of the compounds of the invention to inhibit the phosphorylation of casein by casein kinase 1 epsilon and delta may be evaluated using a FRET (Fluorescence Resonance Energy Transfer) fluorescence test with the aid of the Z'Lyte™ kinase assay Kit (reference PV3670; Invitrogen Corporation™) according to the manufacturer's instructions.
The casein kinases 1 used are obtained from Invitrogen Corporation (human CK1 epsilon PV3500 and human CK1 delta PV3665).
A peptide substrate, labelled at both ends with a fluorophore donor group (coumarin) and a fluorophore acceptor group (fluorescein), constituting a FRET system is phosphorylated in the presence of ATP by casein kinase 1 epsilon or delta in the presence of increasing concentrations of compounds of the invention.
The mixture is treated with a site-specific protease that specifically cleaves the peptide substrate to form two fluorescent fragments having a large fluorescence emission ratio.
The fluorescence observed is thus related to the capacity of the products of the invention to inhibit the phosphorylation of the peptide substrate by casein kinase 1 epsilon or casein kinase 1 delta. […]
The emitted fluorescence is measured at wavelengths of 445 and 520 nm (excitation at 400 nm).

[1] = test system: Mper1-luc Rat-1 (P2C4) fibroblasts; experiment: Circadian cell assay (mPer1 luciferase reporter, period prolongation); type: cell-based; settings: effective concentration that induced a 1-hour prolongation of the circadian period, interpolated from hyperbolic curve
Experimental: Mper1-luc Rat-1 (P2C4) fibroblast cultures were prepared by dividing the cultures every 3-4 days (approximately 10-20% of confluence) on 150 cm^2 degassed polystyrene tissue culture flasks (Falcon® #35-5001) and maintained in growth medium [EMEM (Cellgro #10-0,0-CV); 10% foetal bovine serum (FBS; Gibco #16000-044); and 50 I.U./ml of penicillin-streptomycin (Cellgro #30-001-CI)] at 37° C. and under 5% CO2.
Cells obtained from Rat-1 fibroblast cultures at 30-50% of confluence as described above were co-transfected with vectors containing the selection marker for resistance to zeocin for a stable transfection and a luciferase reporter gene controlled by the mPer-1 promoter. After 24 to 48 hours, the cultures were divided on 96-well plates and maintained in growth medium supplemented with 50-100 μg/ml of zeocin (Invitrogen® #45-0430) for 10-14 days. The zeocin-resistant stable transfectants were evaluated for the expression of the reporter by adding 100 μM luciferin (Promega® #E1603®) to the growth medium and by assaying the luciferase activity on a TopCount® scintillation counter (Packard Model #C384V00). The Rat-1 cell clones expressing both zeocin resistance and lucerifase activity controlled by mPer1 were serum-shock synchronized with 50% horse serum [HS (Gibco® #16050-122)] and the activity of the circadian reporter was evaluated. The P2C4 clone of Mper1-luc Rat-1 fibroblasts was selected to test the compound.
Mper1-luc Rat-1 (P2C4) fibroblasts at 40-50% of confluence, obtained according to the protocol described above, were plated out onto 96-well opaque tissue culture plates (Perkin Elmer® #6005680). The cultures are maintained in growth medium supplemented with 100 μg/ml of zeocin (Invitrogen #45-0430) until they reach 100% of confluence (48-72 h). The cultures were then synchronized with 100 μl of synchronization medium [EMEM (Cellgro #10-0,0-CV); 100 I.U./ml of penicillin-streptomycin (Cellgro #30-001-C1); 50% HS (Gibco #16050-122)] for 2 hours at 37° C. and under 5% CO2. After synchronization, the cultures were rinsed with 100 μl of EMEM (Cellgro #10-010-CV) for 10 minutes at ambient temperature. After rinsing, the medium was replaced with 300 μl of CO2 independent medium [CO2I (Gibco #18045-088); 2 mM L-glutamine (Cellgro #25-005-C1); 100 U.I./ml of penicillin-streptomycin (Cellgro #30-001-C1); 100 μM luciferin (Promega #E 1603)]. […]
The two methods produced a virtually identical period estimation on a range of circadian periods. […] The data were analysed by adjusting a hyperbolic curve to the data expressed as change of period (y-axis) as a function of the concentration of the test compound (x-axis) in the XLfit™ software and the CE Delta (t+1 h) was interpolated from this curve.

T1 sequence (P48730 whole entry): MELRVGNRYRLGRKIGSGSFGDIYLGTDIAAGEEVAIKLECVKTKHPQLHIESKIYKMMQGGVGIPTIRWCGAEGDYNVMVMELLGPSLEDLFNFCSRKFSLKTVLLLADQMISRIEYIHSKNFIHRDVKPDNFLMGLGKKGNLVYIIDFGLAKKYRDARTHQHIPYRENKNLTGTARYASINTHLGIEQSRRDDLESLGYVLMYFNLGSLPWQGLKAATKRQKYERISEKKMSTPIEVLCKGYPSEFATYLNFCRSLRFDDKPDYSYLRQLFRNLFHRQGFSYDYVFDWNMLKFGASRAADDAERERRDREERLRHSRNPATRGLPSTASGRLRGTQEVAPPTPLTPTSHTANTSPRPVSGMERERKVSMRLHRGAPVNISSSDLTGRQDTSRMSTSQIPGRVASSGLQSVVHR

IC50 (human CK1 delta): < 1 nM
Structure (SMILES): Cc1nc2ccc(N3CCNCC3)nn2c1-c1ccncc1 [Compound 1, 2-Methyl-6-piperazin-1-yl-3-pyridin-4-yl-imidazo[1,2-b]pyridazine]
CE Delta (t + 1 h) [1]: 20 nM
